Experiments:
[1] = molecular target: PKM2 (Homo sapiens, UniProt P14618); details: cited from earlier work; for AC50: read-out: AC50 (PKM2 activation); for selectivity for PKM2 versus other pyruvate kinase isozymes: versus PKM1, PKR and PKL
[2] = tested on: orthotopically growing human glioblastoma; details: mouse models; cited from earlier work
[3] = In vitro serum stability, mouse serum; assay type: in vitro ADME; details: up to 120 min
Description: (§1) In Vitro Serum Stability Studies: Human and mouse serum (Sigma-Aldrich) were centrifuged at 4° C., with speed of 13,000 rpm for 10 min. Formulated [^18F]DASA-23 (130-150 μCi, 20 μl volume) was added to 330 μl of supernatant. For control, the same volume of radiolabeled compound in 330 μl PBS was used. After vortexing the radiolabeled mixtures, 70 μl aliquots were incubated at 37° C. At predetermined time points (0, 15, 30, 60, and 120 min), 140 μl of ice-cold acetonitrile was added to corresponding samples to stop metabolism. After vortexing and centrifuging samples (10 min, 13,000 rpm), the supernatants were analyzed by analytical HPLC using the same conditions described above.

[4] = tested on: orthotopic U87 GBM tumors; experiment: PET/CT/MR imaging and ex vivo autoradiography of mice bearing orthotopic U87 tumors; assay type: in vivo, mouse
Description: FIG. 10 illustrates non-invasive imaging of mice bearing orthotopic U87 tumor showing representative T2-weighted MR image and fused PET/CT/MR (10 to 30 min summed activity) of a mouse head bearing an orthotopically grown U87 tumor, white arrows indicate the tumor.
FIG. 11 illustrates non-invasive imaging of mice bearing orthotopic U87 tumor showing an ex vivo autoradiography of coronal mouse brain sections.
FIG. 12B illustrates non-invasive imaging of mice bearing orthotopic U87 tumor showing orthotopic U87 tumor and corresponding contralateral normal brain TAC taken from dynamic [^18F]DASA-23 PET/CT images. Data are means±SD (n=6 animals), ***p<0.001.
PET/MR co-registration confirmed precise correspondence of the [^18F]DASA-23 signal with the location of the intracranial tumors, further confirmed ex vivo by autoradiography.

[5] = In vitro serum stability, human serum; assay type: in vitro ADME; details: up to 120 min
Description: as §1

[6] = tested on: HeLa cells; experiment: Cell uptake of [18F]DASA-23 in HeLa cells; assay type: cell-based, human
Description: Cell Uptake Studies: HeLa cells (0.5×106) were plated into 6-well plates overnight before [^18F]DASA-23 uptake analysis. On the day of the experiment, fresh, prewarmed DMEM containing 25 μCi of [^18F]DASA-23 was added to individual wells (1 ml per well). Cells were incubated with [^18F]DASA-23 at 37° C. and 5% CO2 over a 60 min time course. […] At the specified time points, incubation plates were put on ice, washed with ice-cold phosphate-buffered saline (PBS) (3×500 μl), and lysed in radioimmunoprecipitation assay buffer (Thermo Fisher Scientific Inc.; 500 μl). A portion of the cell lysates (200 μl) were used to determine the amount of decay-corrected radioactivity on a gamma counter (Cobra II Auto-Gamma Counter; Packard Biosciences Co.). The remaining cell lysate was used post radioactive decay for determination of protein concentration using a bicinchoninic acid (BCA) assay (Thermo Fisher Scientific Inc.). Additionally, 10 μl standards from the solution of [^18F]DASA-23 in DMEM (25 μCi/mi) were counted to quantitate the percentage of radiotracer uptake. For efflux studies, HeLa cells were incubated with [^18F]DASA-23 for 60 min and then washed with room temperature Hanks' buffered salt solution (3×500 μl); a subsequent incubation was then completed at 37° C. in fresh, prewarmed radiotracer-free DMEM. At the specified times, samples were processed as described above.

Chain of PKM2 (P14618 whole entry, species assumed): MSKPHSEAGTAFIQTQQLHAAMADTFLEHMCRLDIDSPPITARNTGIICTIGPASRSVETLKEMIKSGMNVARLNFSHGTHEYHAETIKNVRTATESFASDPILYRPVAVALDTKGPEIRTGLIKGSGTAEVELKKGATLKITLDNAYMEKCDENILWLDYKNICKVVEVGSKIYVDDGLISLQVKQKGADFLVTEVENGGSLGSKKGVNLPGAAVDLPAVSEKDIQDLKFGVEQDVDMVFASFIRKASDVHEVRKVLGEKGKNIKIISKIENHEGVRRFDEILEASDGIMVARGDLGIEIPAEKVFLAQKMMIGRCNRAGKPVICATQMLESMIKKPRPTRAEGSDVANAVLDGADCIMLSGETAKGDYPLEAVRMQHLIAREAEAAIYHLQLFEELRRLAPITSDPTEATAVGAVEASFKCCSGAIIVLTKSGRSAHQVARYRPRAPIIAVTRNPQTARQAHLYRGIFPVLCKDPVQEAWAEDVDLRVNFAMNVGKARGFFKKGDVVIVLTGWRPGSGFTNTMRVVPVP

percentage of intact tracer ([3]; 37° C.) [%]	serum stability [3]	percentage of intact tracer ([5]; 37° C.) [%]	serum stability [5]	SMILES	AC50 [1] [nM]	selectivity for PKM2 versus other pyruvate kinase isozymes [1]	detection of PKM2-expressing tumor in vivo [2]	tumor delineation by dynamic PET imaging ([4]; orthotopic U87 GBM tumors vs surrounding normal brain, n=6 mice)	tumor uptake in blocking study (autoradiography) ([4]; pre-treatment with TEPP-46 (50 mg/kg) 60 min prior to tracer)	cell uptake ([6]; 30 min)	cell uptake ([6]; 60 min)
				COc1ccc(S(=O)(=O)N2CCN(S(=O)(=O)c3c(F)cccc3F)CC2)cc1 [DASA-23, reference compound]	90	selectivity for PKM2 relative to other PK enzymes					
				[11CH3]Oc1ccc(S(=O)(=O)N2CCN(S(=O)(=O)c3c(F)cccc3F)CC2)cc1 [[^11C]DASA-23]			successfully detected orthotopically growing human glioblastoma				
95.8	stable	95.7	stable	COc1ccc(S(=O)(=O)N2CCN(S(=O)(=O)c3c(F)cccc3[18F])CC2)cc1 [[^18F]DASA-23, 1-((2-Fluoro-6-(Fluoro-^18F)Phenyl)Sulfonyl)-4-((4-Methoxyphenyl)Sulfonyl)Piperazine]	90	selective activation of PKM2		clearly delineated from the surrounding normal brain tissue	dramatic reduction in tumor uptake	11.4±2.2 % of total tracer/mg protein	21.0±2.0 % of total tracer/mg protein

Source: patent US10675366B2, “Imaging tumor glycolysis by non-invasive measurement of pyruvate kinase M2” (The Board of Trustees of the Leland Stanford Junior …, priority 2016, dated 2020)
